Data reported in PMC12102759 (Protein Science : A Publication of the Protein Society, 2025).
Like-named read-outs stand apart in the source and are kept apart here.

System: G3BP1 NFT2
Format: binding, human
Details: library DMS-CoV, bait G3BP1 NFT2, prey N, listed as aa = residue placed at this position, column sums to 1

Sequence: APRITFGGPSDSTGSN A1K (KPRITFGGPSDSTGSN)
- DMS PSSM value, A (position 1) (peptide APRITFGGPSDSTGSN): 0

Sequence: RNAPRITFGGPSDSTG G16R (RNAPRITFGGPSDSTR)
- DMS PSSM value, G (position 16) (peptide RNAPRITFGGPSDSTG): 0

Sequence: RNAPRITFGGPSDSTG S12V (RNAPRITFGGPVDSTG)
- DMS PSSM value, S (position 12) (peptide RNAPRITFGGPSDSTG): 0

Sequence: RNAPRITFGGPSDSTG G16L (RNAPRITFGGPSDSTL)
- DMS PSSM value, G (position 16) (peptide RNAPRITFGGPSDSTG): 0

Sequence: RNAPRITFGGPSDSTG G16A (RNAPRITFGGPSDSTA)
- DMS PSSM value, G (position 16) (peptide RNAPRITFGGPSDSTG): 0

Sequence: APRITFGGPSDSTGSN T5Q (APRIQFGGPSDSTGSN)
- DMS PSSM value, T (position 5) (peptide APRITFGGPSDSTGSN): 0

Sequence: APRITFGGPSDSTGSN S10M (APRITFGGPMDSTGSN)
- DMS PSSM value, S (position 10) (peptide APRITFGGPSDSTGSN): 0.2077

Sequence: APRITFGGPSDSTGSN G8H (APRITFGHPSDSTGSN)
- DMS PSSM value, G (position 8) (peptide APRITFGGPSDSTGSN): 0

Sequence: RNAPRITFGGPSDSTG F8K (RNAPRITKGGPSDSTG)
- DMS PSSM value, F (position 8) (peptide RNAPRITFGGPSDSTG): 0

Sequence: RNAPRITFGGPSDSTG R5Q (RNAPQITFGGPSDSTG)
- DMS PSSM value, R (position 5) (peptide RNAPRITFGGPSDSTG): 0.0005824

Sequence: APRITFGGPSDSTGSN G14K (APRITFGGPSDSTKSN)
- DMS PSSM value, G (position 14) (peptide APRITFGGPSDSTGSN): 0.00039

Sequence: RNAPRITFGGPSDSTG A3R (RNRPRITFGGPSDSTG)
- DMS PSSM value, A (position 3) (peptide RNAPRITFGGPSDSTG): 0

Sequence: APRITFGGPSDSTGSN S12Y (APRITFGGPSDYTGSN)
- DMS PSSM value, S (position 12) (peptide APRITFGGPSDSTGSN): 0.2998

Sequence: RNAPRITFGGPSDSTG F8V (RNAPRITVGGPSDSTG)
- DMS PSSM value, F (position 8) (peptide RNAPRITFGGPSDSTG): 0

Sequence: RNAPRITFGGPSDSTG N2Y (RYAPRITFGGPSDSTG)
- DMS PSSM value, N (position 2) (peptide RNAPRITFGGPSDSTG): 0

Sequence: RNAPRITFGGPSDSTG S12G (RNAPRITFGGPGDSTG)
- DMS PSSM value, S (position 12) (peptide RNAPRITFGGPSDSTG): 0

Sequence: APRITFGGPSDSTGSN G14W (APRITFGGPSDSTWSN)
- DMS PSSM value, G (position 14) (peptide APRITFGGPSDSTGSN): 0.2634

Sequence: RNAPRITFGGPSDSTG I6N (RNAPRNTFGGPSDSTG)
- DMS PSSM value, I (position 6) (peptide RNAPRITFGGPSDSTG): 0

Sequence: RNAPRITFGGPSDSTG R5A (RNAPAITFGGPSDSTG)
- DMS PSSM value, R (position 5) (peptide RNAPRITFGGPSDSTG): 0.0005421

Sequence: RNAPRITFGGPSDSTG P11E (RNAPRITFGGESDSTG)
- DMS PSSM value, P (position 11) (peptide RNAPRITFGGPSDSTG): 0

Sequence: RNAPRITFGGPSDSTG D13G (RNAPRITFGGPSGSTG)
- DMS PSSM value, D (position 13) (peptide RNAPRITFGGPSDSTG): 0

Sequence: RNAPRITFGGPSDSTG I6S (RNAPRSTFGGPSDSTG)
- DMS PSSM value, I (position 6) (peptide RNAPRITFGGPSDSTG): 0

Sequence: APRITFGGPSDSTGSN S15Q (APRITFGGPSDSTGQN)
- DMS PSSM value, S (position 15) (peptide APRITFGGPSDSTGSN): 0.01454

Sequence: RNAPRITFGGPSDSTG T15E (RNAPRITFGGPSDSEG)
- DMS PSSM value, T (position 15) (peptide RNAPRITFGGPSDSTG): 0

Sequence: APRITFGGPSDSTGSN S10G (APRITFGGPGDSTGSN)
- DMS PSSM value, S (position 10) (peptide APRITFGGPSDSTGSN): 0

Sequence: APRITFGGPSDSTGSN T13D (APRITFGGPSDSDGSN)
- DMS PSSM value, T (position 13) (peptide APRITFGGPSDSTGSN): 9.878e-5

Sequence: RNAPRITFGGPSDSTG T15G (RNAPRITFGGPSDSGG)
- DMS PSSM value, T (position 15) (peptide RNAPRITFGGPSDSTG): 0

Sequence: APRITFGGPSDSTGSN P9Y (APRITFGGYSDSTGSN)
- DMS PSSM value, P (position 9) (peptide APRITFGGPSDSTGSN): 0.04934

Sequence: APRITFGGPSDSTGSN G14A (APRITFGGPSDSTASN)
- DMS PSSM value, G (position 14) (peptide APRITFGGPSDSTGSN): 0.007074

Sequence: RNAPRITFGGPSDSTG T15H (RNAPRITFGGPSDSHG)
- DMS PSSM value, T (position 15) (peptide RNAPRITFGGPSDSTG): 0

Sequence: RNAPRITFGGPSDSTG T7R (RNAPRIRFGGPSDSTG)
- DMS PSSM value, T (position 7) (peptide RNAPRITFGGPSDSTG): 0

Sequence: RNAPRITFGGPSDSTG D13W (RNAPRITFGGPSWSTG)
- DMS PSSM value, D (position 13) (peptide RNAPRITFGGPSDSTG): 0

Sequence: APRITFGGPSDSTGSN D11G (APRITFGGPSGSTGSN)
- DMS PSSM value, D (position 11) (peptide APRITFGGPSDSTGSN): 0

Sequence: APRITFGGPSDSTGSN P2D (ADRITFGGPSDSTGSN)
- DMS PSSM value, P (position 2) (peptide APRITFGGPSDSTGSN): 0.06205

Sequence: RNAPRITFGGPSDSTG A3V (RNVPRITFGGPSDSTG)
- DMS PSSM value, A (position 3) (peptide RNAPRITFGGPSDSTG): 0

Sequence: APRITFGGPSDSTGSN P9D (APRITFGGDSDSTGSN)
- DMS PSSM value, P (position 9) (peptide APRITFGGPSDSTGSN): 0

Sequence: APRITFGGPSDSTGSN A1G (GPRITFGGPSDSTGSN)
- DMS PSSM value, A (position 1) (peptide APRITFGGPSDSTGSN): 0.004858

Sequence: RNAPRITFGGPSDSTG P11R (RNAPRITFGGRSDSTG)
- DMS PSSM value, P (position 11) (peptide RNAPRITFGGPSDSTG): 0
